According to ChEMBL document CHEMBL1201862, “PubChem BioAssay data set” (2004):
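In this assay, cells in 96-well plates receive the compound at five concentrations for 48 hours. Endpoints are linearly interpolated between the surrounding concentrations. Abbreviation: GI50, concentration required for 50% inhibition of growth.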 The source made the active and inactive calls. Rule as the data show it: active = GI50 up to about 1.1 µM and inactive = higher.

Experiments:
Test in all cases: NCI-60 cell line screen, 48 h
ACHN = tested on: ACHN
CAKI-1 = tested on: CAKI-1
HOP-62 = tested on: HOP-62
HOP-92 = tested on: HOP-92
IGROV-1 = tested on: IGROV-1
LOX IMVI = tested on: LOX IMVI
MDA-MB-231 = tested on: MDA-MB-231
Malme-3M = tested on: Malme-3M
NCI-H226 = tested on: NCI-H226
NCI-H23 = tested on: NCI-H23
OVCAR-8 = tested on: OVCAR-8
PC-3 = tested on: PC-3
RPMI-8226 = tested on: RPMI-8226
RXF 393 = tested on: RXF 393
SF-268 = tested on: SF-268
SK-MEL-28 = tested on: SK-MEL-28
SK-MEL-5 = tested on: SK-MEL-5
SK-OV-3 = tested on: SK-OV-3
U-251 = tested on: U-251
HCC 2998 = tested on: HCC 2998

Row | SMILES | GI50 (ACHN) | GI50 (CAKI-1) | GI50 (HOP-62) | GI50 (HOP-92) | GI50 (IGROV-1) | GI50 (LOX IMVI) | GI50 (MDA-MB-231) | GI50 (Malme-3M) | GI50 (NCI-H226) | GI50 (NCI-H23) | GI50 (OVCAR-8) | GI50 (PC-3) | GI50 (RPMI-8226) | GI50 (RXF 393) | GI50 (SF-268) | GI50 (SK-MEL-28) | GI50 (SK-MEL-5) | GI50 (SK-OV-3) | GI50 (U-251) | GI50 (HCC 2998)
1 | Clc1ccc(/C=N/c2ccc3c(c2)Cc2ccccc2-3)c(Cl)c1 | > 100 µM (inactive) | > 100 µM (inactive) | > 100 µM (inactive) | > 100 µM (inactive) | > 100 µM (inactive) | 92.9 µM (inactive) | > 100 µM (inactive) | > 100 µM (inactive) | > 100 µM (inactive) | > 100 µM (inactive) | > 100 µM (inactive) | > 100 µM (inactive) | 75.2 µM (inactive) | > 100 µM (inactive) | > 100 µM (inactive) | > 100 µM (inactive) | > 100 µM (inactive) | > 100 µM (inactive) | > 100 µM (inactive) | –
2 | CC(C)(C)OC(=O)NC(C)(C)C(=O)NCCC(=O)O | > 100 µM (inactive) | > 100 µM (inactive) | > 100 µM (inactive) | – | > 100 µM (inactive) | > 100 µM (inactive) | > 100 µM (inactive) | – | > 100 µM (inactive) | > 100 µM (inactive) | > 100 µM (inactive) | > 100 µM (inactive) | > 100 µM (inactive) | > 100 µM (inactive) | > 100 µM (inactive) | > 100 µM (inactive) | > 100 µM (inactive) | 74.6 µM (inactive) | > 100 µM (inactive) | –
3 | CC(=O)O[C@@H]1C2=C(C)C=C(O2)[C@H]2O[C@]2(C)C[C@H]2C=C(C(=O)O2)[C@H](OC(C)=O)CC1[C@@]1(C)CO1 (stereo partly specified) | 23.7 µM (inactive) | 24.2 µM (inactive) | 23 µM (inactive) | – | 14.3 µM (inactive) | 18.4 µM (inactive) | 27.4 µM (inactive) | 17.5 µM (inactive) | > 100 µM (inactive) | 28.9 µM (inactive) | 35.4 µM (inactive) | 32.4 µM (inactive) | 13.9 µM (inactive) | 17.2 µM (inactive) | 42 µM (inactive) | 19.4 µM (inactive) | 35.7 µM (inactive) | > 100 µM (inactive) | 19.1 µM (inactive) | > 100 µM (inactive)
4 | Cc1ccccc1/N=N/c1ccc(/N=N/c2c(O)ccc3cc(S(=O)(=O)O)cc(S(=O)(=O)O)c23)c(C)c1 | > 100 µM (inactive) | > 100 µM (inactive) | > 100 µM (inactive) | > 100 µM (inactive) | > 100 µM (inactive) | – | > 100 µM (inactive) | > 100 µM (inactive) | > 100 µM (inactive) | > 100 µM (inactive) | > 100 µM (inactive) | > 100 µM (inactive) | > 100 µM (inactive) | > 100 µM (inactive) | > 100 µM (inactive) | > 100 µM (inactive) | > 100 µM (inactive) | > 100 µM (inactive) | > 100 µM (inactive) | > 100 µM (inactive)
5 | CC1CN(c2cc3c(cc2F)c(=O)c(C(=O)O)cn3-c2ccc(N3CCN(C)CC3)cn2)CC(C)N1 (stereo unspecified) | – | > 100 µM (inactive) | 89.9 µM (inactive) | > 100 µM (inactive) | > 100 µM (inactive) | – | > 100 µM (inactive) | > 100 µM (inactive) | > 100 µM (inactive) | > 100 µM (inactive) | 44.5 µM (inactive) | > 100 µM (inactive) | > 100 µM (inactive) | > 100 µM (inactive) | > 100 µM (inactive) | > 100 µM (inactive) | – | > 100 µM (inactive) | 70.5 µM (inactive) | –
6 | O=C1/C(=C2\Sc3c(ccc(Cl)c3Cl)C2=O)Sc2c1ccc(Cl)c2Cl | > 100 µM (inactive) | > 100 µM (inactive) | 12.6 µM (inactive) | > 100 µM (inactive) | > 100 µM (inactive) | – | > 100 µM (inactive) | > 100 µM (inactive) | > 100 µM (inactive) | > 100 µM (inactive) | > 100 µM (inactive) | > 100 µM (inactive) | > 100 µM (inactive) | 89.1 µM (inactive) | > 100 µM (inactive) | > 100 µM (inactive) | > 100 µM (inactive) | – | > 100 µM (inactive) | > 100 µM (inactive)
7 | Cc1cc2c([N+](=O)[O-])cc3c(c2o1)C(=O)C=CC3=O | 1.89 µM (inactive) | 1.06 µM (active) | 19 µM (inactive) | 1.72 µM (inactive) | 7.41 µM (inactive) | 6.76 µM (inactive) | 18.7 µM (inactive) | – | 28.6 µM (inactive) | 17.7 µM (inactive) | 19.6 µM (inactive) | 16.4 µM (inactive) | 0.586 µM (active) | 1.89 µM (inactive) | 12.4 µM (inactive) | 8.85 µM (inactive) | 14.2 µM (inactive) | 29.5 µM (inactive) | 17.7 µM (inactive) | 30.5 µM (inactive)
8 | Cc1ccc(S(=O)(=O)NNC(=S)Nc2cccc3ccccc23)cc1 | 29.9 µM (inactive) | 55.7 µM (inactive) | 59.3 µM (inactive) | 30.6 µM (inactive) | 61.5 µM (inactive) | – | 54.8 µM (inactive) | 33.3 µM (inactive) | 29.4 µM (inactive) | 32.3 µM (inactive) | 37.5 µM (inactive) | 37.2 µM (inactive) | 37.4 µM (inactive) | 85.9 µM (inactive) | 70.6 µM (inactive) | 54.1 µM (inactive) | 17.8 µM (inactive) | 43.3 µM (inactive) | 40.6 µM (inactive) | 53.8 µM (inactive)
9 | C1=N\CCN2CCN(CC/N=C\c3ccccc3OCc3cccc(n3)COc3ccccc3/1)CC2 | 9.71 µM (inactive) | – | 14.6 µM (inactive) | 3.89 µM (inactive) | 11.2 µM (inactive) | – | 16.4 µM (inactive) | 6.12 µM (inactive) | – | 14.6 µM (inactive) | 11.8 µM (inactive) | 9.46 µM (inactive) | 2.48 µM (inactive) | 0.508 µM (active) | 2.15 µM (inactive) | 13.8 µM (inactive) | – | 16.9 µM (inactive) | 2.26 µM (inactive) | –
10 | CC1(C)OC(=O)CC12CCN(Cc1ccccc1)CC2 | > 100 µM (inactive) | > 100 µM (inactive) | > 100 µM (inactive) | > 100 µM (inactive) | > 100 µM (inactive) | > 100 µM (inactive) | > 100 µM (inactive) | > 100 µM (inactive) | > 100 µM (inactive) | > 100 µM (inactive) | > 100 µM (inactive) | > 100 µM (inactive) | > 100 µM (inactive) | > 100 µM (inactive) | > 100 µM (inactive) | > 100 µM (inactive) | > 100 µM (inactive) | > 100 µM (inactive) | > 100 µM (inactive) | –
11 | O=C1CCCCC/C1=C\c1ccc([N+](=O)[O-])cc1 | 21.5 µM (inactive) | 22.7 µM (inactive) | 38.5 µM (inactive) | – | 16.3 µM (inactive) | – | 13 µM (inactive) | 43.7 µM (inactive) | – | – | 38.8 µM (inactive) | 38.6 µM (inactive) | 33.3 µM (inactive) | 33.4 µM (inactive) | 30.5 µM (inactive) | 65 µM (inactive) | 20.1 µM (inactive) | 36.1 µM (inactive) | 31.3 µM (inactive) | 17.1 µM (inactive)
